Results taken from US11180783B2, “Method for producing chiral amines” (VITO NV, priority 2017, dated 2021).

Assays:
[1] = system: TA_3HMU; assay: asymmetric amine synthesis (transamination) with TA_3HMU; assay type: biochemical, Ruegeria pomeroyi; conditions: for product formation from ketosubstrate with HMW amino donors: TA_3HMU, TLC or chiral GC analysis, no equilibrium shifting strategy; for BA conversion: crude extract lyophilized TA_3HMU (3 mg/mL), 25 times excess amine donor (250 mM)
Description: Asymmetric synthesis of chiral amines were performed using HMW amino donors and substrates 1a, 1b and 1c in the presence of TA_3HMU enzyme. […] However, performing the transamination reaction using substrates 1a or 1b, followed by a separation of the formed amine product using a membrane unit (8), according to advantageous aspects of the disclosure, will further shift the thermodynamic equilibrium to the product side of the reaction, thereby improving the product purity of the produced amine product.
Asymmetric amine synthesis experiments were performed using freeze-dried crude extract of TA_3HMU, provided by the company Enzymicals (Germany) and using PEG-A and PEG-C as amino donors (the activity of the enzyme being 970 mU/mg, photometric assay based on acetophenone detection). For a first test, a quite high amount of enzyme (12.5 mg/mL freeze dried powder, corresponding to about 6 mg/mL of total protein content) was used. In addition to poly ethylene glycol molecules (PEGs), the common and cheap LMW amino donor IPA was also investigated. Unlike PEGs, which can be retained by a porous (nanofiltration) membrane (3) with appropriate MWCO and/or pore size, the LMW amino donor IPA will also permeate forming the second solution (2).
Asymmetric amine synthesis experiments were also performed using amine transaminases TA_v2, purchased from c-LEcta GmbH, Leipzig, Germany. The purified enzyme was supplied as freeze-dried powder, the activity of TA_v2 being 1.73 U/mg. All reactions were performed in 1 mL volume containing 12.5-0.78 mg/mL of either TA_3HMU or TA_v2 powder, 10-500 mM amine donor (IPA, PEG-A and PEG-C, 10 mM BA model substrate (dissolved in DMSO) and 0.1 mM PLP in 100 mM CHES buffer, pH 9.5. The final DSMO concentration was 5% (v/v). […]
Substrate (BA) and product (MPPA) concentrations were determined by UHPLC (Thermo Scientific™) with UV detection at 194/210 nm. The chromatographic separation was achieved using 1 μL injection onto a C18 reversed-phase column (Waters Acquity UPLC® BEH C18 1.7 μm 2.1×50 mm). The column temperature was kept at 40° C. The gradient elution program is using mobile phase A 0.1% Formic Acid (FA) in Water (dH2O) and mobile phase B 0.1% FA in acetonitrile (ACN). The elution program was as follows: 0-4 min 99-30% A; 4-5 min 30-1% A; 5-5.1 min 1-99% A; 5.1-7.5 min 99% A; all at a flowrate of 400 μL/min. Amine donors AD 3 and AD 6 were analysed by HPLC with ELSD detector on Alltima HP C18 HL 5 μ, 4.6×250 mm. The eluents for PEGs analysis were: A) dH2O, 0.1% FA; B) ACN, 0.1% FA.
Furthermore, tests were conducted using different loadings of freeze-dried crude extract of TA_3HMU. Since the biotransformation could not be observed photometrically, continuous time-dependent following of the enzyme reaction was not possible. Therefore, laborious stopped enzyme assay providing only few measure points had to be employed. As expected, the initial reaction rate decreased when the enzyme loading was reduced. In presence of IPA donor amine, higher conversions were achieved. However, the reaction end-point decreased, reducing the enzyme amount (cf. FIG. 5.2c). […] Experimental conditions in FIG. 5.2: 10 mM BA; 250 mM AD; 0.1 mM PLP; 5% DMSO; 100 mM CHES buffer, pH 9.5, 30° C., 1000 rpm.
As already discussed hereinabove, using IPA as amine donor in transaminase reactions, a very high amount (e.g. 50-100 fold) amine donor excess is required, complicating downstream processing and possibly hampering the stability and activity of TAs (cf. e.g. Slabu, I. et al. in Catal. Today 306, 96-101 (2018); Savile, C. K. et al. in Science 329, 305-9 (2010); Dawood, A. W. H. et al. in ChemCatChem 10, 951-955 (2018)). TA_3HMU stability towards IPA and HMW ADs 3 and 6 was therefore explored. […] In contrast to IPA, in presence of bulky donor amines (cf. FIG. 5.3a and FIG. 5.3b). Experimental conditions in FIG. 5.3: 10 mM BA; 250 mM amine donor (AD 3, AD 6 or IPA); 0.1 mM PLP; 5% DMSO; 100 mM CHES buffer, pH 9.5, 30° C., 1000 rpm. […]

[2] = system: AspFum; assay: glycine oxidase assay, TA screening towards HMW amino donors; assay type: biochemical, Aspergillus fumigatus; set-up: key: 0: no activity detected; conditions: wildtype (R)- TA; 20 mM amino donor (2.5 mM α-MBA), 2.5 mM glyoxylate, CHES pH 9.5, 37° C., absorbance 498 nm
Description: (§1) The HMW amino donors listed in Table 1 were tested in a feasibility study for reaction with TA enzymes (the HMW amino donors being commercially available and relatively cheap). More particularly, in this study the acceptance of HMW amino donors by TA enzymes was investigated running a glycine oxidase assay (as described by WeiB et al. in Anal. Chem. 2014, 86, 11847-11853). Thereto, 25 wild type transaminases were selected from a library of enzymes. Transaminase selection was made on the basis of TAs availability, broad substrate and amino donor scope, and stability.
(§2) Final substrate concentration amounted to 2.5 mM glyoxylate, 20 mM large amino donor, 7.28 U/mL horseradish peroxidase, 0.12 mg/mL purified glycine oxidase, 3 mM 4-amino antipyrine, and 4.7 mM vanillic acid in CHES buffer (100 mM) with pH 9.5, in total reaction volumes of 150 μL. Cells with empty pET28a(+) vector were applied as negative control. A reaction using 2.5 mM α-MBA was applied as positive control.
(§3) The above (photometric) assay is semiquantitative: the increasing absorbance (slope in FIG. 4.1) correlates with enzyme activity. An accurate quantification, however, was difficult to be performed as the assay is a multi-enzyme reaction.
(§4) TA_3HMU was then further tested with three commercially available HMW Jeffamines® (AD 3, 4 and 6).

[3] = system: 3HMU; assay: as above; assay type: biochemical, Ruegeria pomeroyi; set-up: key to TA activity towards amino donor (3HMU): 0: no activity detected; conditions: for TA_3HMU activity / acceptance of amino donor, in words: glycine oxidase assay, semiquantitative; for TA activity towards amino donor (3HMU): wildtype (S)-selective TA, 20 mM amino donor (2.5 mM α-MBA), 2.5 mM glyoxylate, CHES pH 9.5, 37° C., absorbance 498 nm
Description: as §1, §2, §3, §4

[4] = system: Vfl; assay: as above; assay type: biochemical, Vibrio fluvialis JS17; set-up: key: 0: no activity detected; conditions: wildtype TA; 20 mM amino donor (2.5 mM α-MBA), 2.5 mM glyoxylate, CHES pH 9.5, 37° C., absorbance 498 nm
Description: as §1, §2, §3, §4

[5] = system: AspOry; assay: as above; assay type: biochemical, Aspergillus oryzae; set-up: key: 0: no activity detected; conditions: wildtype TA; 20 mM amino donor (2.5 mM α-MBA), 2.5 mM glyoxylate, CHES pH 9.5, 37° C., absorbance 498 nm
Description: as §1, §2, §3, §4

[6] = system: MycVan; assay: as above; assay type: biochemical, Mycobacterium vanbaalenii; set-up: key: 0: no activity detected; conditions: wildtype TA; 20 mM amino donor (2.5 mM α-MBA), 2.5 mM glyoxylate, CHES pH 9.5, 37° C., absorbance 498 nm
Description: as §1, §2, §3, §4

[7] = system: TA_v2; assay type: biochemical
Description: Reaction was performed in 600 mL volume containing 2 mg/mL of TA_v2 powder, 250 mM AD 6, 10 mM BA substrate (dissolved in DMSO) and 0.1 mM PLP in 100 mM CHES buffer, pH 9.5. The final DSMO concentration was 5% (v/v). After 16 h of reaction, 550 mL of reaction mixture was transferred into the membrane unit and 2 intermittent nanofiltration tests were performed. The remaining 50 mL of reaction mixture was used as control without filtration. After the first nanofiltration (6 h duration, DESAL® DK, 20 bar), the collected permeate and the retentate were mixed, and 5 mM of additional BA substrate were added. Additional substrate was added also to the control condition. After 16 h of reaction, the second nanofiltration was performed (5 h duration, DuraMem® 200, 20 bar). Reaction permeate and retentate samples were taken after distinct time periods and prepared for quantitative analysis.
Addition of BA (5 mM) was made to the enzymatic tank E-1 after 24 h reaction. The second nanofiltration was run after 39 h reaction (DuraMem® 200 membrane, 20 bar).

[8] = on line nanofiltration (Desal-DK membrane) coupled with enzymatic reaction; assay type: biochemical; conditions: after 1.5 h, BA manually diafiltrated (40 mM)
Description: Diafiltration depends on the permeate flow rate since it occurs at the same rate of permeation. Therefore, reaction and permeation rates are to be matched. When solution of high concentrated substrate (BA 200 mM in DMSO) was subjected to diafiltration, BA was accumulating in the enzymatic tank 6 (FIG. 20).
Permeate flux was very low, therefore BA was manually diafiltrated (40 mM). After 1.5 h, 18% BA was converted.

[9] = system: 3FCR; assay: glycine oxidase assay, TA screening towards HMW amino donors; assay type: biochemical, Ruegeria sp. TM1040; set-up: key: 0: no activity detected; conditions: wildtype TA; 20 mM amino donor (2.5 mM α-MBA), 2.5 mM glyoxylate, CHES pH 9.5, 37° C., absorbance 498 nm
Description: as §1, §2, §3, §4

[10] = system: ATA 117; assay: as above; assay type: biochemical, Arthrobacter sp.; set-up: key: 0: no activity detected; conditions: wildtype TA; 20 mM amino donor (2.5 mM α-MBA), 2.5 mM glyoxylate, CHES pH 9.5, 37° C., absorbance 498 nm
Description: as §1, §2, §3, §4

CC(=O)c1ccccc1 [1a, acetophenone]
product formation from ketosubstrate with HMW amino donors [1]: very low product formation

(highly flexible) poly(ethylene glycol) bis (3-aminopropyl) [AD 7]
TA activity towards amino donor (AspFum) [2]: 0
TA_3HMU activity / acceptance of amino donor, in words [3]: high activity
TA activity towards amino donor (Vfl) [4]: 0
TA activity towards amino donor (AspOry) [5]: 0
TA activity towards amino donor (MycVan) [6]: 0

CC(=O)CCc1ccccc1 [BA, benzylacetone]
product formation from ketosubstrate with HMW amino donors [1]: qualitatively detected
additional BA converted ([7]; 16 h after 5 mM substrate addition, NF reaction mixture and control (Reaction_2, Control-Reaction_2)): ~17%
BA further converted ([7]; Control-reaction_1, following 6 h, without filtration): 2%
unreacted substrate lost in the permeate stream ([7]; Desal-DK): ~58%
additional substrate conversion ([7]; NF-1, 6 h nanofiltration, Desal DK, 20 bar): 10%
BA converted ([7]; Reaction_1, 16 h, 10 mM BA, 250 mM AD 6, 2 mg/mL TA_v2): ~55%
BA converted [8]: 18%

CC(=O)c1ccccc1Br [1b, ortho-bromoacetophenone]
product formation from ketosubstrate with HMW amino donors [1]: very low product formation

CC(C)N [IPA, isopropyl amine, reference compound]
TA_3HMU stability in presence of amine donor ([1]; 250 mM amine donor (25-fold excess), 10 mM BA, 3.125 mg/mL enzyme, pH 9.5, 30° C.): fast inactivated

Poly(propylene glycol) bis(2-aminopropyl ether) [AD 3]
TA_3HMU activity / acceptance of amino donor, in words [3]: broadly comparable to those achieved with the positive control
TA_3HMU activity / acceptance of amino donor, in words ([3]; listed as PEG-A): best acceptance
BA conversion ([1]; 10 mM BA): 45%

NCCCN1CCN(CCCN)CC1 [AD 2, 1,4-Bis(3-aminopropyl)piperazine]
TA activity towards amino donor (AspFum) [2]: 0
TA_3HMU activity / acceptance of amino donor, in words [3]: high activity
TA activity towards amino donor (MycVan) [6]: 0

CC(N)c1ccccc1 (stereo not drawn) [α-MBA, 1-phenylethylamine, reference compound]
TA activity towards amino donor (AspOry) [5]: 0
TA activity towards amino donor (MycVan) [6]: 0

CC(N)CCc1ccccc1 (centres unmarked) [1M3P, 1-methyl-3-phenylpropylamine]
additional product formation ([7]; NF-2, DuraMem® 200, 20 bar): 15%

NCCCNCCNCCCN [AD 1, 1,2-bis(3-aminopropylamino)ethane]
TA activity towards amino donor (AspFum) [2]: 0
TA activity towards amino donor (3FCR) [9]: 0
TA activity towards amino donor (3HMU) [3]: 0
TA activity towards amino donor (ATA 117) [10]: 0
TA activity towards amino donor (Vfl) [4]: 0
TA activity towards amino donor (AspOry) [5]: 0
TA activity towards amino donor (MycVan) [6]: 0

O,O′-bis(2-aminopropyl) polypropylene glycol-block-polyethylene glycol-block-polypropylene glycol [AD 6]
TA_3HMU activity / acceptance of amino donor, in words [3]: broadly comparable to those achieved with the positive control
TA_3HMU activity / acceptance of amino donor, in words ([3]; listed as PEG-C): best acceptance
BA conversion ([1]; 10 mM BA): 51%

NCCNC(=O)CCN(CCC(=O)NCCN)CCN(CCC(=O)NCCN)CCC(=O)NCCN [AD 5]
TA activity towards amino donor (AspFum) [2]: 0
TA activity towards amino donor (3FCR) [9]: 0
TA activity towards amino donor (3HMU) [3]: 0
TA activity towards amino donor (ATA 117) [10]: 0
TA activity towards amino donor (Vfl) [4]: 0
TA activity towards amino donor (AspOry) [5]: 0
TA activity towards amino donor (MycVan) [6]: 0
